Active and inactive are the calls of the source. The calls are words filed in the database; no cut-off is given here.
Key:
[1] = Inhibition of Burkholderia cenocepacia synthase CepI assessed as liberation of ACP thiol using SAM as substrate by DCPIP method
Burkholderia cenocepacia [2] = assay: Inhibition of Burkholderia cenocepacia synthase CepI assessed as liberation of ACP thiol using SAM as substrate at 100 uM by DCPIP method
Burkholderia cenocepacia [3] = assay: Binding affinity to Burkholderia cenocepacia synthase CepI assessed as stabilization of protein in presence of trypsin at 50 uM by standard colorimetric trypsin assay

| IC50 [1] [µM] | inhibition (Burkholderia cenocepacia [2]) | Activity (Burkholderia cenocepacia [3]) | SMILES |
| --- | --- | --- | --- |
| 100 | Active |  | CCCCCCCC(=O)N[C@@H]1C[C@H](CSC[C@H]2O[C@@H](n3cnc4c(N)ncnc43)[C@H](O)[C@@H]2O)OC1=O |
| 1 | Active | Active | CCCCCCCC(=O)N[C@H]1C[C@@H](CSC[C@H]2O[C@@H](n3cnc4c(N)ncnc43)[C@H](O)[C@@H]2O)OC1=O |
